One assay concerns the target T1, HDAC6 (Homo sapiens, UniProt Q9UBN7).
T1 sequence (Q9UBN7 1-1215): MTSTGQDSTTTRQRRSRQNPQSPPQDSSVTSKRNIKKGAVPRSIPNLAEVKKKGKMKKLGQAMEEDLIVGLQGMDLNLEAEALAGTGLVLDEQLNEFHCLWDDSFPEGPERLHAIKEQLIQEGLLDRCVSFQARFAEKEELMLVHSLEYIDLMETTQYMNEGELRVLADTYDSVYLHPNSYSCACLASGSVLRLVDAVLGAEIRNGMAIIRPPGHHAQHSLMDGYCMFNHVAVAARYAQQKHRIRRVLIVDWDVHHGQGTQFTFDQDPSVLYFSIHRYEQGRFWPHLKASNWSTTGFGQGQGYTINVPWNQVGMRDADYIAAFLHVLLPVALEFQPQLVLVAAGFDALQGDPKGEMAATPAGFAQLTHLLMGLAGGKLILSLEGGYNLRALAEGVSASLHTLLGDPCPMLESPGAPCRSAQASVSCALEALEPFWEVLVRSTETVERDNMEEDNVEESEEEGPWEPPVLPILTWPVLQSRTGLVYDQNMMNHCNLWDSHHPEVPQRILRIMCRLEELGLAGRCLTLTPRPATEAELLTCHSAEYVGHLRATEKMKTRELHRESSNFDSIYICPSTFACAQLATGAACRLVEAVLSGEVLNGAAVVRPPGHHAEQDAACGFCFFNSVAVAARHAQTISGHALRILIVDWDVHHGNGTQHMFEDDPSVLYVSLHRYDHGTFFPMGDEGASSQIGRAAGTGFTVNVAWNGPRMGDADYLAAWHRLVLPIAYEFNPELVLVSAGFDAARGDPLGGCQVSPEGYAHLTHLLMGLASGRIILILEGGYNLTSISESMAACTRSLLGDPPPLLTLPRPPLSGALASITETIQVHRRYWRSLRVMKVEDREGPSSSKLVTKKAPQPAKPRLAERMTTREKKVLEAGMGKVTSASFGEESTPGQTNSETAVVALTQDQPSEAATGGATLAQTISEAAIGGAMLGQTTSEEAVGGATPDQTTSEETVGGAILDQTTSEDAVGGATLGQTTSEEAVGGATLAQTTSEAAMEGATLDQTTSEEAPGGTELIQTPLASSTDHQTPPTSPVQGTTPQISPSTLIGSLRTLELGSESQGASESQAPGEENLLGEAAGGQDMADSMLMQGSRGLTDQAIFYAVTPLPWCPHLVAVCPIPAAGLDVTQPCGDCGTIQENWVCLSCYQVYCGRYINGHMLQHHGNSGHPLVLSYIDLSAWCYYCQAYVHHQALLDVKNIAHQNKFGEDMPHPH
As to the kind of experiment: HDAC enzyme inhibition assay (Ac-peptide-AMC substrate). In kind it is biochemical. How it is done:
(§1) HDACs inhibition assay of F7 was performed utilizing 4-amino-7-methylcoumarin (AMC) labeled Ac-peptide (Ac-peptide-AMC) substrates, a service provided by Chempartner Company (Shanghai, China).
(§2) This assay was performed was performed utilizing 4-amino-7-methylcoumarin (AMC) labeled Ac-peptide (Ac-peptide-AMC) substrates, a service provided by Chempartner Company (Shanghai, China).

Another assay has as its target HDAC4 (Homo sapiens, UniProt P56524). The assay is described as above. In kind it is biochemical. How it is done:
as §1, §2

One may read the IC50 as the concentration that inhibits the measured activity by half. A higher IC50 goes with weaker potency.

HDAC4, sequence (P56524 whole entry, species assumed): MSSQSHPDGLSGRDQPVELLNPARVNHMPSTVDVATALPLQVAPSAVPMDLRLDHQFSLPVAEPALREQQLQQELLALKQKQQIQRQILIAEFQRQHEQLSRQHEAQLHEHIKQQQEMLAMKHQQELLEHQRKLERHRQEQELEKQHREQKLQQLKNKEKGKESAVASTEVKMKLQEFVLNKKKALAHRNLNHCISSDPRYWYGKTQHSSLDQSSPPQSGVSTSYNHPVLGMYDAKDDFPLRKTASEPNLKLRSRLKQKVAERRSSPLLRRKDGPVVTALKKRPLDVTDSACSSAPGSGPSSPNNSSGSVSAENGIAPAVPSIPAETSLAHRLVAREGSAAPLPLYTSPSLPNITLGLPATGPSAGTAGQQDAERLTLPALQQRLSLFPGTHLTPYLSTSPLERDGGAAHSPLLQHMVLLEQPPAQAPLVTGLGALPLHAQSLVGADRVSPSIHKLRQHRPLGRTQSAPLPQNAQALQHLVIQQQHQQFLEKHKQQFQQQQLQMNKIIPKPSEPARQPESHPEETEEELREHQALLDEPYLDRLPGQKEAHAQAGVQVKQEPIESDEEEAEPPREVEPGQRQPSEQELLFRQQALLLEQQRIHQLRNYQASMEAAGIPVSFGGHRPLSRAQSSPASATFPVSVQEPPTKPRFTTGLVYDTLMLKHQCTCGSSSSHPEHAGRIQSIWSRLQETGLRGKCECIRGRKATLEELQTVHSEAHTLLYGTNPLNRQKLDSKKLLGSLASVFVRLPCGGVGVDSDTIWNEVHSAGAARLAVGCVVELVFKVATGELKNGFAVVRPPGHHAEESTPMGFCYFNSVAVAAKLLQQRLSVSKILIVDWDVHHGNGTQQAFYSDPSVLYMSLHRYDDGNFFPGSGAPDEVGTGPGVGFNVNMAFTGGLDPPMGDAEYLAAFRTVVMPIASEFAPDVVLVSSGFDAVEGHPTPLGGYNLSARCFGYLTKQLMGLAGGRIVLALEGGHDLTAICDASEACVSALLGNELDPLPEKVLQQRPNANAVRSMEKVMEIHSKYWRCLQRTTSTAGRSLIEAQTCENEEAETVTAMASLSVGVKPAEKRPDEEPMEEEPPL

For `Cc1nc(N(C)c2ccc(Oc3ccc(C(=O)NO)cn3)cc2)c2ccccc2n1` [F7, N-hydroxy-6-(4-(methyl(2-methylquinazolin-4-yl)amino)phenoxy)nicotinamide], on HDAC6, the “HDAC6 inhibition efficacy of F7 compared with 23BB” value was “three times higher”, the IC50 is 5.8 nM and the “selectivity of HDAC6 versus other HDACs” value is given as 110-1724 times. The molecule further yielded an IC50 against HDAC4 greater than 10000 nM.
